Experimental data from patent publication US9422285B2, “Substituted pyrazolo[1,5-A]-pyridine-3-carboxamides and use thereof” (Bayer Pharma Aktiengesellschaft, priority 2014, dated 2016).
Where a name gives a salt, the structure may show the parent alone.

What follows are molecules tested against T1, recombinant guanylate cyclase reporter cell line (Rattus norvegicus, UniProt P19686+P20595) (assay: Effect on a recombinant guanylate cyclase reporter cell line (B-2)). Settings: in some cases mean values for individual determinations.
T1 construct: expressed in transfected cells
T1 sequence (P19686 1-690): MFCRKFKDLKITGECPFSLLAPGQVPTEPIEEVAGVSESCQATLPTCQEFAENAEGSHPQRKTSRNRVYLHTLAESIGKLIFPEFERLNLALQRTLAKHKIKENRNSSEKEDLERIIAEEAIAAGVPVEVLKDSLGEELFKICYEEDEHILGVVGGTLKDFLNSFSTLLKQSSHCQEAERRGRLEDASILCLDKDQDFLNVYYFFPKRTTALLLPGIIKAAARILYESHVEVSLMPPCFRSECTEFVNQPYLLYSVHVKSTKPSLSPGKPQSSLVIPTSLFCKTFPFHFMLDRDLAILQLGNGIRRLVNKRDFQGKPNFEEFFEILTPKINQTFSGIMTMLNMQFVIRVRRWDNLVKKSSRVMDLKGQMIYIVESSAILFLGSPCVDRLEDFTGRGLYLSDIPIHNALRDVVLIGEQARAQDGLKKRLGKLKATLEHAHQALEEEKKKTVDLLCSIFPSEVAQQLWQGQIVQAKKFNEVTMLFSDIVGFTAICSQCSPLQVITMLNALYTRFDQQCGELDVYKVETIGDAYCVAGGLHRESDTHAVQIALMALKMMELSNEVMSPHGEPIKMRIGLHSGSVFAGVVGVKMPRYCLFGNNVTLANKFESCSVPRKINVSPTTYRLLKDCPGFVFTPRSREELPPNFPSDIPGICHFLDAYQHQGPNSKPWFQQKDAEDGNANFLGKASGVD
T1 sequence (P20595 1-619): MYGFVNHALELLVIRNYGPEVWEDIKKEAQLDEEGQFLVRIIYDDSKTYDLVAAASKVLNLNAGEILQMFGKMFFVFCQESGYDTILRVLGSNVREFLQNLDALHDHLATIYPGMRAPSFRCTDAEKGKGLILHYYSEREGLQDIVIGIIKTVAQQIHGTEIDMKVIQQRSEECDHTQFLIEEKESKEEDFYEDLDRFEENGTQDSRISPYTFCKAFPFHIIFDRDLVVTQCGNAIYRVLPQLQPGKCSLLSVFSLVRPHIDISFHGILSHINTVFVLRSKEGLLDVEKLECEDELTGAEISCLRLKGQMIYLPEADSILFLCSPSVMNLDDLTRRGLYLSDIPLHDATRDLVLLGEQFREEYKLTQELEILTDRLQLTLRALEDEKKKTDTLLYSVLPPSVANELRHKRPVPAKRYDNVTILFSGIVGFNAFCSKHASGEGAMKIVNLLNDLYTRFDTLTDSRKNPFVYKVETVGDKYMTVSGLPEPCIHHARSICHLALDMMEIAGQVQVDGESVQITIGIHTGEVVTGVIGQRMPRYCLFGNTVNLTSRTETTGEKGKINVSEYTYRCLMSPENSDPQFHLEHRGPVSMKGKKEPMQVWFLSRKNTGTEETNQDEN
Assay type: cell-based
Description: B-2. Effect on a Recombinant Guanylate Cyclase Reporter Cell Line
The cellular effect of the inventive compounds is determined using a recombinant guanylate cyclase reporter cell line, as described in F. Wunder et al., Anal. Biochem. 339, 104-112 (2005).
Representative MEC values (MEC=minimum effective concentration) for the inventive compounds are shown in the table below (in some cases as mean values for individual determinations): […]

| MEC (minimum effective concentration) | SMILES |
| --- | --- |
| 10 µM | Cc1cc(OCc2c(F)cccc2F)n2nc(C)c(C(=O)N[C@@H]3COC[C@@H]3N)c2c1 (relative stereo) [Example 69, rel-N-[(3R,4S)-4-Aminotetrahydrofuran-3-yl]-7-[(2,6-difluorobenzyl)oxy]-2,5-dimethylpyrazolo[1,5-a]pyridine-3-carboxamide] |
| 10 µM | Cc1cc(OCc2c(F)cccc2F)n2nc(C)c(C(=O)NC3CC[C@@H]4NCC[C@H]34)c2c1 (relative stereo) [Example 122, rel-7-[(2,6-Difluorobenzyl)oxy]-2,5-dimethyl-N-[(3aR,6aR)-octahydrocyclopenta[b]pyrrol-4-yl]pyrazolo[1,5-a]pyridine-3-carboxamide] |
| 1.0 µM | Cc1cc(OCc2c(F)cccc2F)n2nc(C)c(C(=O)N[C@@H]3CNC[C@@H]3F)c2c1 (relative stereo) [Example 128, rel-7-[(2,6-Difluorobenzyl)oxy]-N-[(3R,4S)-4-fluoropyrrolidin-3-yl]-2,5-dimethylpyrazolo[1,5-a]pyridine-3-carboxamide] |
| 0.3 µM | Cc1cc(OCc2c(F)cccc2F)n2nc(C)c(C(=O)N[C@H]3c4ccccc4C[C@H]3CO)c2c1 (relative stereo) [Example 143, rel-7-[(2,6-Difluorobenzyl)oxy]-N-[(1R,2R)-2-(hydroxymethyl)-2,3-dihydro-1H-inden-1-yl]-2,5-dimethylpyrazolo[1,5-a]pyridine-3-carboxamide] |
| 0.3 µM | CCC(C)(N)CNC(=O)c1c(C)nn2c(OCc3c(F)cccc3F)cc(C)cc12 (single isomer, unassigned) [Example 2, ent-N-(2-Amino-2-methylbutyl)-7-[(2,6-difluorobenzyl)oxy]-2,5-dimethylpyrazolo[1,5-a]pyridine-3-carboxamide formate] |
| 1.0 µM | Cc1cc(OCc2c(F)cccc2F)n2nc(C)c(C(=O)NCC(C)(N)CF)c2c1 (single isomer, unassigned) [Example 40, ent-N-(2-Amino-3-fluoro-2-methylpropyl)-7-[(2,6-difluorobenzyl)oxy]-2,5-dimethylpyrazolo[1,5-a]pyridine-3-carboxamide] |
| 0.3 µM | Cc1cc(OCc2c(F)cccc2F)n2nc(C)c(C(=O)NCC(C)(N)CF)c2c1 (single isomer, unassigned) [Example 41, ent-N-(2-Amino-3-fluoro-2-methylpropyl)-7-[(2,6-difluorobenzyl)oxy]-2,5-dimethylpyrazolo[1,5-a]pyridine-3-carboxamide] |
| 0.3 µM | Cc1cc(OCc2c(F)cccc2F)n2nc(C)c(C(=O)NCC(C)(N)CCC(F)(F)F)c2c1 (single isomer, unassigned) [Example 42, ent-N-(2-Amino-5,5,5-trifluoro-2-methylpentyl)-7-[(2,6-difluorobenzyl)oxy]-2,5-dimethylpyrazolo[1,5-a]pyridine-3-carboxamide] |
| 0.3 µM | Cc1cc(OCc2c(F)cccc2F)n2nc(C)c(C(=O)NCC(C)(N)CCCF)c2c1 (single isomer, unassigned) [Example 44, ent-N-(2-Amino-5-fluoro-2-methylpentyl)-7-[(2,6-difluorobenzyl)oxy]-2,5-dimethylpyrazolo[1,5-a]pyridine-3-carboxamide] |
| 0.3 µM | Cc1cc(OCc2c(F)cccc2F)n2nc(C)c(C(=O)NCC(C)(N)CCCF)c2c1 (single isomer, unassigned) [Example 45, ent-N-(2-Amino-5-fluoro-2-methylpentyl)-7-[(2,6-difluorobenzyl)oxy]-2,5-dimethylpyrazolo[1,5-a]pyridine-3-carboxamide] |
| 0.3 µM | Cc1cc(OCc2c(F)cccc2F)n2nc(C)c(C(=O)NCC(C)(N)CCF)c2c1 (single isomer, unassigned) [Example 49, ent-N-(2-Amino-4-fluoro-2-methylbutyl)-7-[(2,6-difluorobenzyl)oxy]-2,5-dimethylpyrazolo[1,5-a]pyridine-3-carboxamide] |
| 0.3 µM | Cc1cc(OCc2c(F)cccc2F)n2nc(C)c(C(=O)NCC(C)(N)CCF)c2c1 (single isomer, unassigned) [Example 50, ent-N-(2-Amino-4-fluoro-2-methylbutyl)-7-[(2,6-difluorobenzyl)oxy]-2,5-dimethylpyrazolo[1,5-a]pyridine-3-carboxamide] |

Further lines, the molecule ahead of its results:

| SMILES | MEC (minimum effective concentration) |
| --- | --- |
| CCCC(C)(N)CNC(=O)c1c(C)nn2c(OCc3c(F)cccc3F)cc(CC)cc12 (racemic) [Example 172, rac-N-(2-Amino-2-methylpentyl)-7-[(2,6-difluorobenzyl)oxy]-5-ethyl-2-methylpyrazolo[1,5-a]pyridine-3-carboxamide] | 0.3 µM |
| CCC(C)(N)CNC(=O)c1c(C)nn2c(OCc3c(F)ccc(F)c3F)cc(C)cc12 (single isomer, unassigned) [Example 3, ent-N-(2-Amino-2-methylbutyl)-2,5-dimethyl-7-[(2,3,6-trifluorobenzyl)oxy]pyrazolo[1,5-a]pyridine-3-carboxamide] | 0.3 µM |
| CCCC(C)(N)CNC(=O)c1c(C)nn2c(OCc3c(F)ccc(F)c3F)cc(C)cc12 (single isomer, unassigned) [Example 4, ent-N-(2-Amino-2-methylpentyl)-2,5-dimethyl-7-[(2,3,6-trifluorobenzyl)oxy]pyrazolo[1,5-a]pyridine-3-carboxamide] | 0.2 µM |
| Cc1cc(OCc2c(F)cccc2F)n2nc(C)c(C(=O)NCC(C)(N)CC(F)F)c2c1 (single isomer, unassigned) [Example 46, ent-N-(2-Amino-4,4-difluoro-2-methylbutyl)-7-[(2,6-difluorobenzyl)oxy]-2,5-dimethylpyrazolo[1,5-a]pyridine-3-carboxamide] | 2.0 µM |
| Cc1cc(OCc2c(F)cccc2F)n2nc(C)c(C(=O)NCC(C)(N)CC(F)F)c2c1 (single isomer, unassigned) [Example 47, ent-N-(2-Amino-4,4-difluoro-2-methylbutyl)-7-[(2,6-difluorobenzyl)oxy]-2,5-dimethylpyrazolo[1,5-a]pyridine-3-carboxamide] | 1.0 µM |
| CCCc1nn2c(OCc3c(F)cccc3F)cc(C)cc2c1C(=O)NCC(C)(N)CCC (single isomer, unassigned) [Example 51, ent-N-(2-Amino-2-methylpentyl)-7-[(2,6-difluorobenzyl)oxy]-5-methyl-2-propylpyrazolo[1,5-a]pyridine-3-carboxamide] | 1.0 µM |
| CCCC(C)(N)CNC(=O)c1c(C(F)(F)F)nn2c(OCc3c(F)cccc3F)cc(C)cc12 (single isomer, unassigned) [Example 52, ent-N-(2-Amino-2-methylpentyl)-7-[(2,6-difluorobenzyl)oxy]-5-methyl-2-(trifluoromethyl)pyrazolol[1,5-a]pyridine-3-carboxamide trifluoroacetate] | 0.3 µM |
| CCCC(C)(N)CNC(=O)c1cnn2c(OCc3c(F)cccc3F)cc(C)cc12 (single isomer, unassigned) [Example 53, ent-N-(2-Amino-2-methylpentyl)-7-[(2,6-difluorobenzyl)oxy]-5-methylpyrazolo[1,5-a]pyridine-3-carboxamide] | 3.0 µM |
| CCC(C)(N)CNC(=O)c1c(C2CC2)nn2c(OCc3c(F)cccc3F)cc(C)cc12 (single isomer, unassigned) [Example 54, ent-N-(2-Amino-2-methylbutyl)-2-cyclopropyl-7-[(2,6-difluorobenzyl)oxy]-5-methylpyrazolo[1,5-a]pyridine-3-carboxamide] | 0.3 µM |
